Test [1] deals with powdery mildew. The settings on record: dogwood plants; untreated control 30%; from U.S. Pat. Nos. 5,736,164 and 5,800,837; cited from earlier work.
In test [2] the test system is Plasmopara viticola. Nature of the test: B.5.2 Curative treatment against Plasmopara viticola in grapevines. It counts as in vivo. The note with it: without second inoculation, half-leaf, example 12 diluted 1:100, examples 13/14 1:200, 5 days after inoculation. As to the method:
(§1) Potted grapevines were inoculated with Plasmopara viticola both before foliar treatment with the active agent and after washing the active agent coating off the leaves in order to test the effect of the residual depot of actives. To ensure a good comparability of the results and avoid or at least strongly minimize falsification of the effects, e.g. due to the use of leaves of different physiological age or of different expositions, a half-leaf treatment was carried out: In each case only one half of a leaf was treated, while the other half remained untreated and served as a control and reference for determining efficacy; the two halves being separated by the middle leaf vein. For this purpose a precision sprayer was used for applying the active compounds on the one leaf half, while the half which was to stay untreated was covered with a blotting paper during spraying. […]
The experiment was carried out in analogy to B.5.1, however without the second inoculation. 5 days after the inoculation the plants were placed for 12 h into a humid chamber and then the extent of infection was determined visually and the efficacy W was calculated from the infected leave surface according to Abbot's formula. The expected efficacies for active compound combinations (i.e. secondary magnesium and calcium phosphonate) were determined using Colby's formula.

The test system of test [3] is Erysiphe graminis. Kind of test: B.6 Protective treatment against Erysiphe graminis in wheat. It counts as in vivo. The settings on record: wheat cultivar Kanzler sprayed to runoff, example 12 diluted 1:100, examples 13/14 1:200, inoculated after 24 h, 18 days after treatment. As to the method:
For a treatment according to the invention, the reaction mixture obtained in example 12 was diluted with water in 1:100 v/v ratio, then 0.05% Silwet® L-77 was added. For comparison, the reaction mixtures obtained in examples 13 and 14, respectively, were diluted with water in 1:200 v/v ratio, then 0.05% Silwet® L-77 was added.
B.6 Protective Treatment Against Erysiphe graminis in Wheat
In a greenhouse, wheat plants of the cultivar Kanzler with 2-3 fully developed leaves were sprayed to runoff-point with either a suspension of the product of example 13 containing secondary magnesium phosphonate, or of the product of example 14 containing secondary calcium phosphonate, or of the product of example 12 containing secondary calcium and magnesium phosphonate; in each case diluted and supplemented with a wetting agent as defined in example B.5.1. After 24 h the plants were inoculated with conidia of Erysiphe graminis. 18 days after the treatment with the active compounds the extent of infection (formation of conidia) was determined visually and the efficacy W was calculated from the infected leave surface according to Abbot's formula. The expected efficacies for active compound combinations (i.e. secondary magnesium and calcium phosphonate) were determined using Colby's formula.

Test [4] deals with Sphaerotheca fuliginea and Erysiphe cichoracearum. Nature of the test: B.7 Protective treatment against Sphaerotheca fuliginea and Erysiphe cichoracearum in cucumber. It counts as in vivo. The settings on record: Cucumis sativus half-leaf treatment, example 12 diluted 1:100, examples 13/14 1:200, inoculated after 24 h, 18 days after treatment. As to the method: as §1
In a greenhouse, leaves of Cucumis sativus plants var. […] 18 days after the treatment with the active compounds the extent of infection (formation of conidia) was determined visually and the efficacy W was calculated from the infected leave surface according to Abbot's formula. The expected efficacies for active compound combinations (i.e. secondary magnesium and calcium phosphonate) were determined using Colby's formula.

For test [5], the system named is Plasmopara viticola. Nature of the test: B.5.1 Protective and curative treatment against Plasmopara viticola in grapevines (half-leaf). It counts as in vivo. The note with it: example 12 diluted 1:100, examples 13/14 1:200, 0.05% Silwet L-77, ca. 2 μl/cm2, 6 days after first inoculation. As to the method:
as §1, with “vein.” for “vein. For this purpose a precision sprayer was used for applying the active compounds on the one leaf half, while the half which was to stay untreated was covered with a blotting paper during spraying.”
6 days after the first inoculation the plants were placed for 12 h into a humid chamber and then the extent of infection was determined visually and the efficacy W was calculated from the infected leave surface according to the above Abbot's formula.
The expected efficacies for active compound combinations (i.e. secondary magnesium and calcium phosphonate) were determined using Colby's formula (Colby, S. R., “Calculating synergistic and antagonistic responses of herbicide combinations”, Weeds, 15, pp. 20-22, 1967) and compared to the observed efficacies. […]

Test [6] has as its system Plasmopara viticola. Kind of test: B.5.3 Protective treatment against Plasmopara viticola in grapevines. In kind it is in vivo. The note with it: without first inoculation, washed after 24 h, example 12 diluted 1:100, examples 13/14 1:200, 5 days after inoculation. As to the method: as §1
The experiment was carried out in analogy to B.5.1, however without the first inoculation. 5 days after the inoculation the plants were placed for 12 h into a humid chamber and then the extent of infection was determined visually and the efficacy W was calculated from the infected leave surface according to Abbot's formula. The expected efficacies for active compound combinations (i.e. secondary magnesium and calcium phosphonate) were determined using Colby's formula.

Test [7] concerns Rhizopus stolonifer. Nature of the test: B.4 Protective action against Rhizopus stolonifer on rye bread (Pumpernickel). The settings on record: Pumpernickel slices; mixtures 1:50 diluted with water, sorbic acid 0.1% solution; after one week of incubation. As to the method:
B.4 Protective Action Against Rhizopus stolonifer on Rye Bread (“Pumpernickel”)
Sterile slices of Pumpernickel were each sprayed with water (control), a 0.1% sorbic acid solution (a standard preservative) or the mixture of example 1 or of example 8 (1:50 diluted with water). For inoculation with the fungus, small disks of blotting paper were soaked with a spore suspension of Rhizopus stolonifer and placed onto the center of Pumpernickel slices. After one week of incubation, the degree of fungus formation was examined.

Turning to potassium phosphonate, the “leaves infected with powdery mildew” value in test [1] was 100%.

On to “secondary calcium phosphonate [Example 14]”, for which the Observed efficacy was determined as 18.3% in test [2]; 11.7% in test [3]; 20.0% in test [4]; 24.6% in test [5]; 35.1% in test [6].

For `C/C=C/C=C/C(=O)O` [Sorbic acid, sorbic acid], in test [7], the Infected surface area was determined as 40%.

As to “secondary magnesium phosphonate [Example 13]”, the Observed efficacy stood at 47.3% in test [2]; 36.7% in test [3]; 43.3% in test [4]; 16.5% in test [5]; 44.5% in test [6].

(Values after patent publication US12075784B2, “Mixtures containing secondary calcium and magnesium phosphonate and their use as fungicide or fertilizer” ([…] (haftungsbeschränkt), priority 2016, dated 2024).)
